Experimental data published in US10662229B2, “Spider venom peptides and methods of use for modulating sodium channels” (priority 2016, dated 2020).

What was measured:
hNav1.1 [1] = biological target: T1, hNav1.1 (Homo sapiens, UniProt P35498); assay: FLIPR membrane potential assay, hNav1.1; format: cell-based
T1 construct: host or cells: HEK293
Method in brief: (§1)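 Stable HEK293 lines expressing each human Nav subtype were plated 48 h before the assay and loaded with red membrane potential dye for 30 min at 37 °C.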

hNav1.6 [2] = biological target: T2, hNav1.6 (Homo sapiens, UniProt Q9UQD0); assay: Automated patch clamping (QPatch-16), hNav1.6; format: cell-based; settings: mean±SEM
T2 construct: host or cells: HEK293
Description: (§2) HEK293 cells stably expressing hNav1.1-1.7 or CHO cells stably expressing hNav1.8 (as described in Example 3 above) were cultured in a T-175 flask in selection antibiotic-free media at 37° C. Cells were grown to 70-80% confluence and harvested using Detachin (Bio-Scientific, NSW, Australia) at 37° C. for 2 min. Dissociated cells were then resuspended in Ex-Cell ACF CHO Medium with HEPES (25 mM; Sigma-Aldrich Co.) and allowed to recover on the QStirrer for 30 min.
(§3) The extracellular solution contained in mM: NaCl 145, KCl 4, CaCl2 2, MgCl2 1, HEPES 10 and glucose 10. The pH was adjusted to 7.4 with NaOH and osmolarity was adjusted with sucrose to 305 mOsm. The intracellular solution contained in mM: CsF 140, ethylene glycol tetraacetic acid (EGTA)/CsOH 1/5, HEPES 10 and NaCl 10. The pH was adjusted to 7.3 with CsOH and osmolarity adjusted with sucrose to 320 mOsm. […]
(§4) The current-voltage (IV) curve was constructed with a holding potential of −80 mV followed by a pre-pulse of −100 mV for 50 ms and a series of 50 ms step pulses that ranged from −80 to 50 mV in 5 mV increments before returning to a holding potential of −80 mV. Voltage-dependence of activation was determined as normalized Nav conductance (GNa) using: GNa=INa/(Vmemb−Vrev), where Vmemb is the membrane potential and Vrev is the reversal potential for each cell. […]

hNav1.4 = biological target: T3, hNav1.4 (Homo sapiens, UniProt P35499); assay: FLIPR membrane potential assay, hNav1.4; format: cell-based
T3 construct: host or cells: HEK293
Method in brief: as §1

[3] = Stability of Pnc1a in solutions (RP-HPLC/MS); format: physicochemical; settings: room temperature
hNav1.6 [4] = biological target: T2, hNav1.6; assay: FLIPR membrane potential assay, hNav1.6; format: cell-based
Method in brief: as §1

hNav1.5 = biological target: T4, hNav1.5 (Homo sapiens, UniProt Q14524); assay: FLIPR membrane potential assay, hNav1.5; format: cell-based
T4 construct: host or cells: HEK293
Method in brief: as §1

hNav1.2 = biological target: T5, hNav1.2 (Homo sapiens, UniProt Q99250); assay: Automated patch clamping (QPatch-16), hNav1.2; format: cell-based
T5 construct: host or cells: HEK293
Description: as §2, §3, §4

hERG = biological target: T6, hERG (Homo sapiens, UniProt Q12809); assay: hERG automated patch clamping in CHO cells; format: cell-based; settings: 100 nM
T6 construct: host or cells: CHO
Description: CHO cells stably expressing hERG (B'SYS GmbH, Witterswil, Switzerland) were cultured in Ham's F-12 medium containing 10% v/v FBS and selection antibiotics as recommended by the manufacturer. Cells were cultured and prepared as described in Example 4.
The extracellular solution contained in mM: NaCl 145, KCl 4, MgCl2 1, CaCl2 2, HEPES 10 and glucose 10. The pH was adjusted to 7.4 and osmolarity was 305 mOsm. The intracellular solution contained in mM; KCl 120, HEPES 10, CaCl2 5, MgCl2 1.7, K2ATP 4, EGTA 10.
The pH was adjusted to 7.3 and osmolarity was 292 mOsm.
Whole-cell patch-clamp experiments were performed on a QPatch-16 automated electrophysiology platform (as described in Example 4). hERG currents were elicited by a depolarization step of +40 mV from a holding potential of −80 mV for 5 s. hERG tail currents were elicited upon partial repolarization to −50 mV for 5 s. The interval of voltages pulses was 15 s.

hNav1.8 = biological target: T7, hNav1.8 (Homo sapiens, UniProt Q9Y5Y9); assay: Automated patch clamping (QPatch-16), hNav1.8; format: cell-based
T7 construct: host or cells: HEK293
Description: as §2, §3, §4

hNav1.1 [5] = biological target: T1, hNav1.1; assay: Automated patch clamping (QPatch-16), hNav1.1; format: cell-based; settings: mean±SEM
Description: as §2, §3, §4

T2 sequence (Q9UQD0 whole entry): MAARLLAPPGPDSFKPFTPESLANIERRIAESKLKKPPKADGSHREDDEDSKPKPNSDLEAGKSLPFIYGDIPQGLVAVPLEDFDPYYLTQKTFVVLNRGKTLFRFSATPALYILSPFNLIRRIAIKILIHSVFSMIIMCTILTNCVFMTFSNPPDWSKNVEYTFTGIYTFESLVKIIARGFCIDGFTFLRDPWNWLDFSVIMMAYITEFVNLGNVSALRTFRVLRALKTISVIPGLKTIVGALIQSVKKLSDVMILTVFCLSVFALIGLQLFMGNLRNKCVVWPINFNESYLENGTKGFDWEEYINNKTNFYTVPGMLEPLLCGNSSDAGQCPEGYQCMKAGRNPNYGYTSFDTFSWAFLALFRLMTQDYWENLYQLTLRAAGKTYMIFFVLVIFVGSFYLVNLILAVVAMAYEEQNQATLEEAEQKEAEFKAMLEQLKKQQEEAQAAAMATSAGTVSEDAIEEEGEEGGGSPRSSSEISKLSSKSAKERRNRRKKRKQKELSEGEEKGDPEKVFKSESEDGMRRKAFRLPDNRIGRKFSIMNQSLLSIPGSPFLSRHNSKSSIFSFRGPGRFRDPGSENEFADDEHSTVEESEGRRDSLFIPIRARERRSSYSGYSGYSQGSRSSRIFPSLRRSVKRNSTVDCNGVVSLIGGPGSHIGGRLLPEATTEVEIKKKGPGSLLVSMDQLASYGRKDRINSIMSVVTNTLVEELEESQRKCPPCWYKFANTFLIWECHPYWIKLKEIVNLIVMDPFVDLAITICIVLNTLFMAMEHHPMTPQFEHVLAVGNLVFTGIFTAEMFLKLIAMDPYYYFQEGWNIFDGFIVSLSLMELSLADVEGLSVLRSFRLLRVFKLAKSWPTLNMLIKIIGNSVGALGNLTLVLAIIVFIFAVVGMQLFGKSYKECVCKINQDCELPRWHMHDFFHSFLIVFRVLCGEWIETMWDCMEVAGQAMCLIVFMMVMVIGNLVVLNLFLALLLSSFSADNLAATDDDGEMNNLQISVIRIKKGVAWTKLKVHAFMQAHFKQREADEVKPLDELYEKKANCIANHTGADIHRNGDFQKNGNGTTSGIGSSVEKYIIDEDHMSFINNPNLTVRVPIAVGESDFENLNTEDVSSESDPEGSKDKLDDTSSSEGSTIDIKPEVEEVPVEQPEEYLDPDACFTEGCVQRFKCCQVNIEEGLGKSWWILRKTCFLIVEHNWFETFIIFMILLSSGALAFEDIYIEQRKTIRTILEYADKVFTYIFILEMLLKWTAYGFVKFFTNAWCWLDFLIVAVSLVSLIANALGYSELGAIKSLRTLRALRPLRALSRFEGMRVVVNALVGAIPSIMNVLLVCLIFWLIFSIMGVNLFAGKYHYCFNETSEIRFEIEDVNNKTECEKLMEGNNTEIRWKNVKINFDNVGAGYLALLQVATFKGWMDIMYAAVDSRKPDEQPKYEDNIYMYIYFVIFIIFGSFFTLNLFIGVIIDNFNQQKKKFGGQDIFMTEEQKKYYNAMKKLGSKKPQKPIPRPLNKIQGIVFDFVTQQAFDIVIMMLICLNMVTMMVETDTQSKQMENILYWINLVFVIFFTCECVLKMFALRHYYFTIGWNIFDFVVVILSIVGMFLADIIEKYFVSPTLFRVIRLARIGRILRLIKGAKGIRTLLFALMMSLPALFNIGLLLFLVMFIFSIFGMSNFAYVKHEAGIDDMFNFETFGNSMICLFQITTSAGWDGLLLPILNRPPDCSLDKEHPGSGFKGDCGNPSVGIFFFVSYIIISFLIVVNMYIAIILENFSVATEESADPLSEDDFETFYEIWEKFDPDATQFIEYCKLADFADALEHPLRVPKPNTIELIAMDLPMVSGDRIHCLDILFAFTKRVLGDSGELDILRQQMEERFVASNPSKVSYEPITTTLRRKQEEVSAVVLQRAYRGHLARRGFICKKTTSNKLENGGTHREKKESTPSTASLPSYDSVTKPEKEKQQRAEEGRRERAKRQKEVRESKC
T6 sequence (Q12809 whole entry): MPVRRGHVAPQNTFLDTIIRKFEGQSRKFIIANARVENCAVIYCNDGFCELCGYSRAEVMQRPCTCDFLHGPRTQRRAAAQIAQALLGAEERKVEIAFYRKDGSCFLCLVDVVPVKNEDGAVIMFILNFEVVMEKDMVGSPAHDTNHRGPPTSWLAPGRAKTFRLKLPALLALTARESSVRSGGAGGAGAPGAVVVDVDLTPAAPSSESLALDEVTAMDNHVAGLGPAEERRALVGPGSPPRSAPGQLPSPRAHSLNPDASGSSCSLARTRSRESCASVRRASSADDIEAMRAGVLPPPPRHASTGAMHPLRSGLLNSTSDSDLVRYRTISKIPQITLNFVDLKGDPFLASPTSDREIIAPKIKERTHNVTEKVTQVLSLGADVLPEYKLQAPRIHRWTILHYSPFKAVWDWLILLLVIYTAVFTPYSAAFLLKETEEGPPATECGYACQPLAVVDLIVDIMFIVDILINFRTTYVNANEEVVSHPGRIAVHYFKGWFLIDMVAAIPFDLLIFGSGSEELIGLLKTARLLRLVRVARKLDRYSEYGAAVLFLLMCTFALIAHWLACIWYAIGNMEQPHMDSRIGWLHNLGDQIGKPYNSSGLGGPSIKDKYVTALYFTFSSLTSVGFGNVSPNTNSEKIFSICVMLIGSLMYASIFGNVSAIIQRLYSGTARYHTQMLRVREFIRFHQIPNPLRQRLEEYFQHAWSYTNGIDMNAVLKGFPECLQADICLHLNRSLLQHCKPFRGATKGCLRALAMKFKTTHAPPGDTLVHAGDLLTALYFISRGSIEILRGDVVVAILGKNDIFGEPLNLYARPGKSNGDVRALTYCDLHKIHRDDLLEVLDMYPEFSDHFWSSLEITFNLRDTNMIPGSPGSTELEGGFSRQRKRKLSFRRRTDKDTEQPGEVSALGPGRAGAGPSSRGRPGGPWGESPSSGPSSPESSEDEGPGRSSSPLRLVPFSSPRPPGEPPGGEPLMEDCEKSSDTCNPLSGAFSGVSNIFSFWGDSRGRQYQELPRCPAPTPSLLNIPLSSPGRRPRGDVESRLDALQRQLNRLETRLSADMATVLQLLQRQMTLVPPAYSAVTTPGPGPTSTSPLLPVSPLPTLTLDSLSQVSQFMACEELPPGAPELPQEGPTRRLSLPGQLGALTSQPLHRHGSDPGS
T4 sequence (Q14524 whole entry): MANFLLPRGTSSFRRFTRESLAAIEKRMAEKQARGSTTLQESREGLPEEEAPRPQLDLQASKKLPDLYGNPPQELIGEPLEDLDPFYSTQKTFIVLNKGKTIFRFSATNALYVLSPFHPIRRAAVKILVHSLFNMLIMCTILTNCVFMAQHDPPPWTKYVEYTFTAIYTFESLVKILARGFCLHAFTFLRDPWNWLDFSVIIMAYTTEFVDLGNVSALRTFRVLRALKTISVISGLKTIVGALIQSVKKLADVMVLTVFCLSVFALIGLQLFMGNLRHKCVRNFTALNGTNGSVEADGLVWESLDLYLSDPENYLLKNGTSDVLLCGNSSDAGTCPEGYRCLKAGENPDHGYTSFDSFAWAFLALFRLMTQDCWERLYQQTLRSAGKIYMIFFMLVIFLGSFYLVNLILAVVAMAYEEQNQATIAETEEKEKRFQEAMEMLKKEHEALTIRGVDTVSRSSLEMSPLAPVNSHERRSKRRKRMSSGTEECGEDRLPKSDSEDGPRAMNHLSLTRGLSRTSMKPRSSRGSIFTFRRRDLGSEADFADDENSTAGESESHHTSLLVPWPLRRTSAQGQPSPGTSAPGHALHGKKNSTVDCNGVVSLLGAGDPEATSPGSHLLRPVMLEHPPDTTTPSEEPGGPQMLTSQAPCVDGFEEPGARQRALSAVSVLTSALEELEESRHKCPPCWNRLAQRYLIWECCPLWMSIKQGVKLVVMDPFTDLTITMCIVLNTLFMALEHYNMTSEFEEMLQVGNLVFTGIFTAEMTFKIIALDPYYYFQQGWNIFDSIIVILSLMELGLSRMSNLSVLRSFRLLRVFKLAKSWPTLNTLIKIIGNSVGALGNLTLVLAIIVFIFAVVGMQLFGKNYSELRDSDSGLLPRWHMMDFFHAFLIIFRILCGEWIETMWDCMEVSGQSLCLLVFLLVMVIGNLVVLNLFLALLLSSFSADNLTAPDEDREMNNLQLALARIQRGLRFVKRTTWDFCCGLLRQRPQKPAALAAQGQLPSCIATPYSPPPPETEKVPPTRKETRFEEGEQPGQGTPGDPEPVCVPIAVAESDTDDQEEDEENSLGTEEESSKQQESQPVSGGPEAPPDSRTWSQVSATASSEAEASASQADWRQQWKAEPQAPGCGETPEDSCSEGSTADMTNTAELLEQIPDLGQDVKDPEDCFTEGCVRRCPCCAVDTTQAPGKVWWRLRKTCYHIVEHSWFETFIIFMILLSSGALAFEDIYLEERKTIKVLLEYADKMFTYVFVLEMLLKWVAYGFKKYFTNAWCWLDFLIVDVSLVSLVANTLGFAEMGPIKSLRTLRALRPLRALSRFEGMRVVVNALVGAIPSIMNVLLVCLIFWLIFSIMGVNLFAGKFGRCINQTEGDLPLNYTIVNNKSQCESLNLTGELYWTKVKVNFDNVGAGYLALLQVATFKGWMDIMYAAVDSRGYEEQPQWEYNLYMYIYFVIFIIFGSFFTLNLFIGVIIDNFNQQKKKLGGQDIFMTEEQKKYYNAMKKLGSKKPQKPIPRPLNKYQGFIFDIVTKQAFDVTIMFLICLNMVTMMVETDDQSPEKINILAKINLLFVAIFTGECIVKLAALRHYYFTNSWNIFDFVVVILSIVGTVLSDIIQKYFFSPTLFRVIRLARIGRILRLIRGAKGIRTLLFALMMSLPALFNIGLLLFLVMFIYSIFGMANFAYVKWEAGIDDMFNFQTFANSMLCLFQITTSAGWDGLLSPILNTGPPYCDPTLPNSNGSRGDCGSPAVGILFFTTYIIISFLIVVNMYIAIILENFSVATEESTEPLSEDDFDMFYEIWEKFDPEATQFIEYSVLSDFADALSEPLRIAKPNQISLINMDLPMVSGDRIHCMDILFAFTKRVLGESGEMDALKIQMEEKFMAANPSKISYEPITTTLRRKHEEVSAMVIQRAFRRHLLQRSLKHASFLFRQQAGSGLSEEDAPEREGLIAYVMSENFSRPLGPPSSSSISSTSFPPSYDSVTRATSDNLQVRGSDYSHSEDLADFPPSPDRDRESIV

CSCC[C@@H]1NC(=O)[C@H](Cc2ccc(O)cc2)NC(=O)[C@H](CCCNC(=N)N)NC(=O)[C@@H](NC(=O)[C@@H](N)CC(=O)O)CSSC[C@@H]2NC(=O)[C@@H]3CSSC[C@@H](C(=O)N[C@@H](C)C(=O)N[C@@H](Cc4c[nH]c5ccccc45)C(=O)N[C@@H](CC(=O)O)C(=O)N[C@@H](Cc4ccccc4)C(=O)N[C@H](C(=O)N[C@@H](Cc4ccccc4)C(=O)N[C@H](C(=O)O)[C@@H](C)O)[C@@H](C)O)NC(=O)[C@H](Cc4ccc(O)cc4)NC(=O)[C@H](CCCCN)NC(=O)[C@H](CCSC)NC(=O)[C@H](CCCCN)NC(=O)[C@H](CCCNC(=N)N)NC(=O)[C@H](CCCCN)NC(=O)[C@H](CSSC[C@H](NC(=O)[C@H](CC(=O)O)NC(=O)CNC(=O)[C@H](Cc4ccccc4)NC1=O)C(=O)N[C@@H](CCC(=O)O)C(=O)N[C@@H](CCCCN)C(=O)N[C@@H](CC(=O)O)C(=O)N[C@@H](CCC(=O)O)C(=O)N[C@@H](CC(=O)O)C(=O)N3)NC(=O)CNC(=O)[C@H](CC(C)C)NC(=O)[C@H](Cc1cnc[nH]1)NC(=O)[C@H](CCCCN)NC2=O [Pnc1a]
IC50 (hNav1.1 [1]): 13.2 µM
pIC50 Nav1.6 (hNav1.6 [2]): 6.89±0.1 M
IC50 (hNav1.4): 11.2 µM
time after which no intact peptide remained ([3]; PBS pH 6.5, 100 μM): 12 days
time after which no intact peptide remained ([3]; PBS/saline pH 5.7, 100 μM): 25 days
stability over the 25 day period ([3]; bicarbonate buffered saline pH 5.7, 100 μM): remained intact
stability over the 25 day period ([3]; bicarbonate buffered saline pH 7.1, 100 μM): remained intact
stability over the 25 day period ([3]; saline pH 3, 100 μM): remained intact
IC50 (hNav1.6 [4]): 18.6 µM
IC50 (hNav1.5): 85.1 µM
IC50 (hNav1.2): 0.126 µM
effect on hERG peak tail current (hERG): did not have a significant effect
hERG peak tail current (hERG; control 539±13 pA): 504±38 pA
IC50 (hNav1.8): 47.9 µM
pIC50 Nav1.1 (hNav1.1 [5]): 7.43±0.1 M
